Laboratory results from ChEMBL document CHEMBL1155044, “Elucidation of different binding modes of purine nucleosides to human deoxycytidine kinase” (J Med Chem, 2008).

Experiments:
[1] = tested on: Nc1nc(O)c2ncn([C@H]3C[C@H](O)[C@@H](CO)O3)c2n1; details: Homo sapiens
[2] = tested on: Nc1nc(O)c2ncn([C@H]3C[C@H](O)[C@@H](CO)O3)c2n1; details: Homo sapiens; remark: listed apart in the source
[3] = species on record: Homo sapiens
[4] = species on record: Homo sapiens; remark: listed apart in the source

Chain of Deoxycytidine kinase (Homo sapiens), P27707 (P27707 whole entry): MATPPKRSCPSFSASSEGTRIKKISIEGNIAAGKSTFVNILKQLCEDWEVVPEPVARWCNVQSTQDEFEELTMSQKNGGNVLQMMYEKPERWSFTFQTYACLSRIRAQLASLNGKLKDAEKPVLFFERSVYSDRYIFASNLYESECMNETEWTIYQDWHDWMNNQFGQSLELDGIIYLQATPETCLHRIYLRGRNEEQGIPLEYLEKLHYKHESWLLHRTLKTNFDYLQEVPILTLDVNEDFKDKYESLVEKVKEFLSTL

Molecule | Km [1] | kcat [1] | Km [2] | Km [3] | kcat [3] | Km [4] | kcat [4]
Deoxycytidine kinase (Homo sapiens), P27707 | 41 µM | 0.53 s⁻¹ | 181 µM | – | – | – | –
Nc1nc(O)c2ncn([C@H]3C[C@H](O)[C@@H](CO)O3)c2n1 | – | – | – | 700 µM | 3.6 s⁻¹ | 10.4 µM | 0.43 s⁻¹
